Reference: ChEMBL document CHEMBL5050830, “Novel antibacterial compounds” (2013)
pIC50, pKi: −log10 of the molar value. The source made the active and inactive calls. The calls are words filed in the database; no cut-off is given here.

What was measured:
[1] = Inhibition of His-tagged Staphylococcus aureus NADK in presence of glucose-6-phosphate dehydrogenase and NADP measured by spectrophotometry method
[2] = biological target: T1, NAD kinase 1 (Listeria monocytogenes serovar 1/2a (strain ATCC BAA-679 / EGD-e), UniProt Q8Y8D7); assay: Inhibition of His-tagged Listeria monocytogenes NADK1 in presence of glucose-6-phosphate dehydrogenase and NADP measured by spectrophotometry method
T1 sequence (Q8Y8D7 whole entry): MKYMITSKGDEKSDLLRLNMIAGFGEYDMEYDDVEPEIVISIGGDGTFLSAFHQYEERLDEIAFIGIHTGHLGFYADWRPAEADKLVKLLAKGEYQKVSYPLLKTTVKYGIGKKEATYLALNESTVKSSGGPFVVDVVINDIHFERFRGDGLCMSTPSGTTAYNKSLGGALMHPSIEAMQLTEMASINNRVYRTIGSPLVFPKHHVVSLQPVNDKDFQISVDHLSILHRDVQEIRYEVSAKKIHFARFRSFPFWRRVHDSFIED

[3] = tested on: HeLa; assay: Cytotoxicity against human HeLa cells at 10 uM assessed as change in cell shape and multiplication after 96 hrs; type: toxicity, cell-based
[4] = tested on: Staphylococcus aureus; assay: Antibacterial activity against Staphylococcus aureus S25 strain at 1 ug/ml assessed as decrease in number of colony forming units relative to control; type: functional, organism-based; details: dose 1.0 µg/ml
[5] = tested on: Staphylococcus aureus; assay: Antibacterial activity against Staphylococcus aureus S25 strain at 10 ug/ml assessed as decrease in number of colony forming units relative to control; type: functional, organism-based; details: dose 10.0 µg/ml
[6] = tested on: Staphylococcus aureus; assay: Antibacterial activity against Staphylococcus aureus S25 strain at 8 ug/ml assessed as decrease in number of colony forming units relative to control; type: functional, organism-based; details: dose 8.0 µg/ml

Row | Compound | pKi [1] | pKi [2] | Activity [3] | Activity [4] | further results
1 | NC[C@H]1O[C@@H](n2c(SCC(=O)NC[C@H]3O[C@@H](n4cnc5c(N)ncnc54)[C@H](O)[C@@H]3O)nc3c(N)ncnc32)[C@H](O)[C@@H]1O | 4.30 | 4.52 | Non-Toxic | Active | 
2 | Nc1ncnc2c1ncn2[C@@H]1O[C@H](COCC#Cc2nc3c(N)ncnc3n2[C@@H]2O[C@H](CO)[C@@H](O)[C@H]2O)[C@@H](O)[C@H]1O | 4.82 | 4.70 | Non-Toxic | Active | 
3 | NC[C@H]1O[C@@H](n2c(Br)nc3c(N)ncnc32)[C@H](O)[C@@H]1O |  |  |  |  | pIC50 [2]: 3.52
4 | Nc1ncnc2c1ncn2[C@@H]1O[C@H](CNCC#Cc2nc3c(N)ncnc3n2[C@@H]2O[C@H](CO)[C@@H](O)[C@H]2O)[C@@H](O)[C@H]1O |  |  | Non-Toxic |  | Activity [5]: Active
5 | CN[C@H](CC(C)C)C(=O)N[C@H]1C(=O)N[C@@H](CC(N)=O)C(=O)N[C@H]2C(=O)N[C@H]3C(=O)N[C@H](C(=O)N[C@H](C(=O)O)c4cc(O)cc(O)c4-c4cc3ccc4O)[C@H](O)c3ccc(c(Cl)c3)Oc3cc2cc(c3O[C@@H]2O[C@H](CO)[C@@H](O)[C@H](O)[C@H]2O[C@H]2C[C@](C)(N)[C@H](O)[C@H](C)O2)Oc2ccc(cc2Cl)[C@H]1O |  |  |  |  | Activity [6]: Active
